# Laboratory results: PMC9668969 (Nature Communications, 2022)
# Tested on: WT ELIC
# Assay: Tryptophan fluorescence emission spectrum with and without agonist
# Assay type: biochemical, Erwinia chrysanthemi
# Conditions: WT 30 mM Cys
# Procedure: To measure the tryptophan (Trp) fluorescence emission of ELIC, WT or W206F ELIC was diluted to 3 ml (0.02 mg/ml) and an emission spectrum was collected in a quartz fluorescence cell using a Fluoromax Plus Spectrofluorometer (Horiba Scientific). […] Trp fluorescence measurements with rapid mixing of agonist was carried out using the SX20 stopped-flow spectrofluorometer, outfitted with a 295 nm LED excitation source. Purified ELIC was diluted to 0.1 mg/ml in Trp Stopped-flow Buffer A (10 mM Tris pH 7.5, 100 mM NaCl, 0.05% DDM). A single mixing experiment was performed by mixing ELIC with equal volumes of Buffer A + propylamine. Propylamine was prepared at varying concentrations at 2x the final concentration. The instrument dead time was ~1 ms, enabling capture of most of the time course of change in Trp fluorescence. The time course of decrease in Trp fluorescence after rapid mixing with propylamine was fit to a single exponential to obtain a time constant for the rate of decrease and a measure of the extent of decrease. All replicates were taken from distinct samples.
compound,measurement,setting,value
NCCS [cysteamine],Tryptophan fluorescence emission intensity,wavelength 320,804590
same,Tryptophan fluorescence emission intensity,wavelength 321,840110
same,Tryptophan fluorescence emission intensity,wavelength 322,860020
same,Tryptophan fluorescence emission intensity,wavelength 323,881470
same,Tryptophan fluorescence emission intensity,wavelength 324,898170
same,Tryptophan fluorescence emission intensity,wavelength 325,925090
same,Tryptophan fluorescence emission intensity,wavelength 327,958460
same,Tryptophan fluorescence emission intensity,wavelength 328,977560
same,Tryptophan fluorescence emission intensity,wavelength 329,1001430
same,Tryptophan fluorescence emission intensity,wavelength 330,1017700
same,Tryptophan fluorescence emission intensity,wavelength 331,1038960
same,Tryptophan fluorescence emission intensity,wavelength 332,1051130
same,Tryptophan fluorescence emission intensity,wavelength 333,1064180
same,Tryptophan fluorescence emission intensity,wavelength 334,1076000
same,Tryptophan fluorescence emission intensity,wavelength 335,1094750
same,Tryptophan fluorescence emission intensity,wavelength 336,1105230
same,Tryptophan fluorescence emission intensity,wavelength 337,1102570
same,Tryptophan fluorescence emission intensity,wavelength 338,1110270
same,Tryptophan fluorescence emission intensity,wavelength 339,1107370
same,Tryptophan fluorescence emission intensity,wavelength 340,1100850
same,Tryptophan fluorescence emission intensity,wavelength 341,1109610
same,Tryptophan fluorescence emission intensity,wavelength 342,1105480
same,Tryptophan fluorescence emission intensity,wavelength 343,1098150
same,Tryptophan fluorescence emission intensity,wavelength 344,1095000
same,Tryptophan fluorescence emission intensity,wavelength 345,1092160
same,Tryptophan fluorescence emission intensity,wavelength 346,1088360
same,Tryptophan fluorescence emission intensity,wavelength 347,1077030
same,Tryptophan fluorescence emission intensity,wavelength 348,1068840
same,Tryptophan fluorescence emission intensity,wavelength 349,1066310
same,Tryptophan fluorescence emission intensity,wavelength 350,1055290
same,Tryptophan fluorescence emission intensity,wavelength 351,1041270
same,Tryptophan fluorescence emission intensity,wavelength 352,1036270
same,Tryptophan fluorescence emission intensity,wavelength 353,1015310
same,Tryptophan fluorescence emission intensity,wavelength 354,1003150
same,Tryptophan fluorescence emission intensity,wavelength 355,990040
same,Tryptophan fluorescence emission intensity,wavelength 356,980580
same,Tryptophan fluorescence emission intensity,wavelength 357,950350
same,Tryptophan fluorescence emission intensity,wavelength 358,943630
same,Tryptophan fluorescence emission intensity,wavelength 359,918190
same,Tryptophan fluorescence emission intensity,wavelength 360,914380
same,Tryptophan fluorescence emission intensity,wavelength 361,899440
same,Tryptophan fluorescence emission intensity,wavelength 362,877520
same,Tryptophan fluorescence emission intensity,wavelength 363,850800
same,Tryptophan fluorescence emission intensity,wavelength 364,821470
same,Tryptophan fluorescence emission intensity,wavelength 365,795670
same,Tryptophan fluorescence emission intensity,wavelength 366,776390
same,Tryptophan fluorescence emission intensity,wavelength 367,752920
same,Tryptophan fluorescence emission intensity,wavelength 368,732340
same,Tryptophan fluorescence emission intensity,wavelength 369,720880
same,Tryptophan fluorescence emission intensity,wavelength 370,691880
same,Tryptophan fluorescence emission intensity,wavelength 371,677380
same,Tryptophan fluorescence emission intensity,wavelength 372,661530
same,Tryptophan fluorescence emission intensity,wavelength 373,643370
same,Tryptophan fluorescence emission intensity,wavelength 374,622610
same,Tryptophan fluorescence emission intensity,wavelength 375,605580
same,Tryptophan fluorescence emission intensity,wavelength 376,584360
same,Tryptophan fluorescence emission intensity,wavelength 377,567600
same,Tryptophan fluorescence emission intensity,wavelength 378,558770
same,Tryptophan fluorescence emission intensity,wavelength 379,531360
same,Tryptophan fluorescence emission intensity,wavelength 380,517880
same,Tryptophan fluorescence emission intensity,wavelength 381,499820
same,Tryptophan fluorescence emission intensity,wavelength 382,482620
same,Tryptophan fluorescence emission intensity,wavelength 383,465090
same,Tryptophan fluorescence emission intensity,wavelength 384,451150
same,Tryptophan fluorescence emission intensity,wavelength 385,428430
same,Tryptophan fluorescence emission intensity,wavelength 386,420060
same,Tryptophan fluorescence emission intensity,wavelength 387,400770
same,Tryptophan fluorescence emission intensity,wavelength 388,385350
same,Tryptophan fluorescence emission intensity,wavelength 389,381600
same,Tryptophan fluorescence emission intensity,wavelength 390,360170
same,Tryptophan fluorescence emission intensity,wavelength 391,346400
same,Tryptophan fluorescence emission intensity,wavelength 392,340740
same,Tryptophan fluorescence emission intensity,wavelength 393,327660
same,Tryptophan fluorescence emission intensity,wavelength 394,316470
same,Tryptophan fluorescence emission intensity,wavelength 395,301980
same,Tryptophan fluorescence emission intensity,wavelength 396,291020
same,Tryptophan fluorescence emission intensity,wavelength 397,277640
same,Tryptophan fluorescence emission intensity,wavelength 398,265940
same,Tryptophan fluorescence emission intensity,wavelength 399,253020
same,Tryptophan fluorescence emission intensity,wavelength 400,247580
same,Tryptophan fluorescence emission intensity,wavelength 401,237600
same,Tryptophan fluorescence emission intensity,wavelength 402,233050
same,Tryptophan fluorescence emission intensity,wavelength 403,223960
same,Tryptophan fluorescence emission intensity,wavelength 404,210930
same,Tryptophan fluorescence emission intensity,wavelength 405,205250
same,Tryptophan fluorescence emission intensity,wavelength 406,197950
same,Tryptophan fluorescence emission intensity,wavelength 407,191160
same,Tryptophan fluorescence emission intensity,wavelength 408,187280
same,Tryptophan fluorescence emission intensity,wavelength 409,181840
same,Tryptophan fluorescence emission intensity,wavelength 410,170220
same,Tryptophan fluorescence emission intensity,wavelength 411,167400
same,Tryptophan fluorescence emission intensity,wavelength 412,162070
same,Tryptophan fluorescence emission intensity,wavelength 413,154720
same,Tryptophan fluorescence emission intensity,wavelength 414,150730
same,Tryptophan fluorescence emission intensity,wavelength 415,146270
same,Tryptophan fluorescence emission intensity,wavelength 416,141050
same,Tryptophan fluorescence emission intensity,wavelength 417,136250
same,Tryptophan fluorescence emission intensity,wavelength 418,131260
same,Tryptophan fluorescence emission intensity,wavelength 419,129580
same,Tryptophan fluorescence emission intensity,wavelength 420,125310
